Measured values published in ChEMBL document CHEMBL1124577, “LH-RH antagonists: design and synthesis of a novel series of peptidomimetics” (J Med Chem, 1989).

How the values were obtained:
[1] = biological target: T1, Gonadotropin-releasing hormone receptor (Rattus norvegicus, UniProt P30969); test: Binding affinity at Leutinizing releasing hormone receptor in rat pituitary using [125I]leuprolide as radioligand
T1 sequence (P30969 whole entry): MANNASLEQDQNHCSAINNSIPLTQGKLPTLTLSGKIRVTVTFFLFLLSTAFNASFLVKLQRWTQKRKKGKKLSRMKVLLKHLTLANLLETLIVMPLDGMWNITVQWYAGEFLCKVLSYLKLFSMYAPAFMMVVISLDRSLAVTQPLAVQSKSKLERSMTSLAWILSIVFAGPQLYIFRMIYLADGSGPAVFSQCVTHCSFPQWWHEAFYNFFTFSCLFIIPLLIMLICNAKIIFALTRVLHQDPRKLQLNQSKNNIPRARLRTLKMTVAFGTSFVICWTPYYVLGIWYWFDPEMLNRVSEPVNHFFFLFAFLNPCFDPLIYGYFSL

[2] = biological target: T1, Gonadotropin-releasing hormone receptor; test: Dissociation constant was determined in vitro using rat pituitary membranes and [125I]-leuprolide as radioligand, at concentration 3.16*10e-6 M; format: cell membranes
[3] = biological target: T2, Gonadotropin-releasing hormone receptor (Rattus norvegicus) (UniProt P30969); test: Apparent receptor density at 1.0*10e-5 M concentration
T2 sequence (whole entry): T1 sequence (P30969 whole entry)

[4] = biological target: T2, Gonadotropin-releasing hormone receptor (Rattus norvegicus); test: Apparent receptor density at 3.16*10e-5 M concentration
[5] = biological target: T2, Gonadotropin-releasing hormone receptor (Rattus norvegicus); test: Apparent receptor density at 3.16*10e-6 M concentration
Rattus norvegicus = species on record: Rattus norvegicus; test: Antagonism of leuprolide-induced release of luteinizing hormone from rat pituitary cell; format: functional; conditions: Pituitary gland cell, read-out: pA2 (converted)
[6] = biological target: T1, Gonadotropin-releasing hormone receptor; test: Dissociation constant was determined in vitro using rat pituitary membranes, at concentration 1.0*10e-5 M; format: cell membranes
[7] = biological target: T1, Gonadotropin-releasing hormone receptor; test: Binding affinity at LH-RH receptor in rat pituitary using [125I]leuprolide as radioligand
[8] = biological target: T1, Gonadotropin-releasing hormone receptor; test: Dissociation constant was determined in vitro using rat pituitary membranes and [125I]leuprolide as radioligand, at concentration 3.16*10e-5 M; format: cell membranes

## O=C1c2ccccc2C(=O)N1C[C@H]1CO[C@](Cn2ccnc2)(c2ccc(Cl)cc2Cl)O1
[1]
  IC50: > 30000 nM

## CC(=O)N1CCN(c2ccc(OCC3COC(Cn4ccnc4)(c4ccc(Cl)cc4Cl)O3)cc2)CC1 (configuration not stated) [KETOCONAZOLE]
[2]
  Kd: 0.221 nM
[3]
  Bmax: 2.01 pmol/mg
[4]
  Bmax: 1.6 pmol/mg
[5]
  Bmax: 1.91 pmol/mg
Rattus norvegicus
  Kb: 64600 nM
[6]
  Kd: 0.375 nM
[7]
  IC50: 2000 nM
[8]
  Kd: 811 nM

## OC[C@H]1CO[C@](Cn2ccnc2)(c2ccc(Cl)cc2Cl)O1
[1]
  IC50: > 30000 nM

## O=C(NC[C@H]1CO[C@](Cn2ccnc2)(c2ccc(Cl)cc2Cl)O1)C1CCC(=O)N1C(=O)OCc1ccccc1 (some centres not stated)
[1]
  IC50: > 30000 nM

## Clc1ccc([C@@]2(Cn3ccnc3)OC[C@H](COc3ccccc3)O2)c(Cl)c1
[1]
  IC50: > 30000 nM

## Clc1ccc([C@@]2(Cn3ccnc3)OC[C@H](CNCc3c[nH]c4ccccc34)O2)c(Cl)c1
[1]
  IC50: > 30000 nM

## CCC(C)n1ncn(-c2ccc(N3CCN(c4ccc(OC[C@H]5CO[C@](Cn6ccnc6)(c6ccc(Cl)cc6Cl)O5)cc4)CC3)cc2)c1=O (some centres not stated)
[1]
  IC50: > 30000 nM

## O=C(NC[C@H]1CO[C@](Cn2ccnc2)(c2ccc(Cl)cc2Cl)O1)[C@H](Cc1c[nH]cn1)NC(=O)[C@@H]1CCC(=O)N1C(=O)OCc1ccccc1
[1]
  IC50: 2000 nM

## CC(C)(C)OC(=O)N[C@@H](Cc1c[nH]c2ccccc12)C(=O)N1CCC[C@H]1C(=O)N[C@@H](CC1=CNCN1)C(=O)NC[C@H]1CO[C@](Cn2ccnc2)(c2ccc(Cl)cc2Cl)O1
[1]
  IC50: 500 nM
Rattus norvegicus
  Kb: 4570 nM
